The subject of data set [1] is antigen-induced airway hyperresponsiveness to methacholine. In words: Allergen-induced airway hyperresponsiveness (AHR) in mouse model of asthma. Type of data set: in vivo. The following applies: 15 or 30 mg/kg s.c., 1 h before and 1 h after each ovalbumin challenge. As to the method: Inhibition of allergen-induced Airway hyperresponsiveness (AHR) and inflammation in mouse model of asthma; Immunization, challenge and drug treatment: Female mice, as specified above, were immunized intraperitoneally (i.p.) with 10 μg ovalbumin mixed with 0.2 ml of aluminum hydroxide gel (Alu-Gel-S; SERVA Electrophoresis GmbH, Heidelberg, Germany), on day 0 and repeated on day 7. On day 14, after the start of immunization, the animals were challenged intra-nasally, once a day for 4 consecutive days, with 50 μl of 0.06% ovalbumin solution in PBS. Control animals were similarly immunized with PBS and challenged intra-nasally with 50 μl PBS. All intra-nasal administrations were done following light anesthesia with halothane.
The animals were divided into 5 groups A-E (10-14 animals per group). […]
Different treatment groups were used for the AHR and cytology/histology studies. Twenty four hours after the last intra-nasal challenge/drug treatment, lung function was measured in some animals while in others bronchoalveolar lavage (BAL), cytology and histology were performed after they were sacrificed with overdose of halothane.
Measurement of AHR: AHR was measured in individual mice using a Finepoint Series RC site (Buxco Research Systems, Wilmington, N.C., USA), according to the manufacturer's guidelines. […]

For `CCCCCCCC(=O)N(O)C[C@H]1CN(c2ccc(N3CCOCC3)c(F)c2)C(=O)O1` [PH-251, (R)—N-((3-(3-fluoro-4-morpholinophenyl)-2-oxooxazolidin-5-yl)methyl)-N-hydroxyoctanamide], the melting point (commonly the temperature, or range, at which the solid turns liquid) was in the range of 119 to 122 °C. In addition, the “Development of antigen-induced AHR to inhaled methacholine (FIGS. 4A-4B)” value in data set [1] is “almost completely abolished the development of AHR”.

Values taken from patent US11608320B2, “Oxazolidinone hydroxamic acid derivatives” (KUWAIT UNIVERSITY, priority 2020, dated 2023).
